The source of these data is patent US20250353891A1 (MEDIMMUNE LIMITED, priority 2022, published 2025).

For experiment [1], the target named is human glucagon receptor (hGCGR) (Homo sapiens, UniProt P47871). The experiment is described as follows: cAMP production (HTRF) in CHO cells expressing hGCGR. It is filed as cell-based. Details: expressed in transfected cells. Conditions: geometric mean, read-out: hGluc-R EC50. An outline of the steps: (§1)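 Read-out: HTRF cAMP (anti-cAMP cryptate donor, cAMP-d2 acceptor in conjugate/lysis buffer), converted to % Delta F and fitted by 4-parameter logistic for EC50. Cell densities were 1×10^5 cells/mL (hGLP-1R) or 2×10^5 cells/mL (hGCGR). Stimulation lasted 30 min at room temperature.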

Experiment [2] concerns the target human GLP-1 receptor (hGLP-1R) (Homo sapiens, UniProt P43220). Nature of the experiment: cAMP production (HTRF) in CHO cells expressing hGLP-1R. More on the design: expressed in transfected cells. It is filed as cell-based. Conditions: for EC50: geometric mean, read-out: hGLP-1R EC50; for % Relative Potency Ratio: % GLP-1R activity relative to GLP-1 / % GlucR activity relative to glucagon. In short, it runs like this: as §1

Experiment [3] can be described thus: Mouse acute food intake study. It is filed as in vivo. Conditions: male C57Bl/6 mice, s.c., cumulative food intake at 24 hr vs vehicle. The method, then:
Male C57Bl/6 mice obtained from Jackson Laboratories or Charles River at 8-9 weeks of age and were housed one per cage in BioDaq (Research Diets) cages. Mice were placed on Alpha Dri bedding, standard chow diet (Envigo, 2018) and given water pouches. Mice were allowed to acclimate for 1-2 weeks. Body weight was measured to ensure appropriate acclimation. After acclimation, mice were sham dosed a minimum of 2 times prior to initiation of food intake study. On study day, mice were placed in clean cage bottoms, weighed, and fasted for 6-8 hours. Mice were sorted into groups based on average 24-hour food intake data and body weight. 1-2 hours prior to lights out, mice were dosed subcutaneously with one vehicle or test peptide dissolved in an appropriate vehicle at 5 mL/kg. Mice were left undisturbed and allowed access to food and water for 48 hours. Automated food intake was monitored in the BioDaq system was monitored during this time. Discrete food intake data was exported into MS Excel from which cumulative food intake data was generated and analyzed.

[4] abbreviates: Table 7, peptides modified at position 20, cAMP in CHO hGCGR cells.
[5] abbreviates: Table 7, peptides modified at position 20, cAMP in CHO hGLP-1R cells.

Read-outs that look alike come from different tables or passages of the source. Starred links: 1 amine or outer side, 2 acyl side, 3 side chain; linkers in the order of their positions; H or OH if unused. Non-standard residues stand in square brackets, D forms with d. Residues, ends and D or L forms follow the SMILES beside them. Groups on a side chain read outwards from the residue. *: point of attachment. C20 diacid = O=C(O)CCCCCCCCCCCCCCCCCCC(=O)*; C18 diacid = O=C(O)CCCCCCCCCCCCCCCCC(=O)*; γGlu = O=C(O)[C@H](CCC(=O)[*:2])N[*:1]; αMeF = C[C@](N)(Cc1ccccc1)C(=O)O; AEEA = NCCOCCOCC(=O)O; Aib = CC(C)(N)C(=O)O

Sequence of human GLP-1 receptor (hGLP-1R) (P43220 24-463): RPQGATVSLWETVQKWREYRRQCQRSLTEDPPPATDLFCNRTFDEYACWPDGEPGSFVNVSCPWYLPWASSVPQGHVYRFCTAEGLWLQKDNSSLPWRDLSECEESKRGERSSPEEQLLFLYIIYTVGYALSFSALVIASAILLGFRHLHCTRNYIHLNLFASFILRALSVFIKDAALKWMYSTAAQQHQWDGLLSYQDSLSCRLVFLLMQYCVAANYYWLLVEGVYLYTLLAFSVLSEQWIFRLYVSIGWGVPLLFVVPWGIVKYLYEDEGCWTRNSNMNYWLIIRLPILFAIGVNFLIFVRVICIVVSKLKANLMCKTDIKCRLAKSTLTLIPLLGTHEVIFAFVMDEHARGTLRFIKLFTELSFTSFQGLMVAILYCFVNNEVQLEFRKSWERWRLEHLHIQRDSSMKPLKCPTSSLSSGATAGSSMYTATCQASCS
Sequence of human glucagon receptor (hGCGR) (P47871 26-477): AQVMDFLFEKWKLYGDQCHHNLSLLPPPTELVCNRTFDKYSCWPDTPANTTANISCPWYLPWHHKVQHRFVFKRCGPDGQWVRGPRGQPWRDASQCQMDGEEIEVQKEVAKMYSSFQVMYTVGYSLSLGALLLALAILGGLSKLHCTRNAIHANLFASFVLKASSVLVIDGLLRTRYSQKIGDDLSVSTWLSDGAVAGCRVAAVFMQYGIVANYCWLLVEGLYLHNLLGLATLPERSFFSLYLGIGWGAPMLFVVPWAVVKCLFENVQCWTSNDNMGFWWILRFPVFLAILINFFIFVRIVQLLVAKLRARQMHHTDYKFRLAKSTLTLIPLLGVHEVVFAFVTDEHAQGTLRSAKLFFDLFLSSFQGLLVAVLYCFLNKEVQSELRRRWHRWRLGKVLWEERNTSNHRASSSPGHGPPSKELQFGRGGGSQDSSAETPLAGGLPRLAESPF

For `CC[C@H](C)[C@H](NC(=O)C(C)(C)NC(=O)[C@H](CCC(N)=O)NC(=O)[C@@H](NC(=O)[C@](C)(Cc1ccccc1)NC(=O)[C@H](CC(=O)O)NC(=O)[C@H](CCCCNC(=O)COCCOCCNC(=O)COCCOCCNC(=O)CC[C@H](NC(=O)CCCCCCCCCCCCCCCCC(=O)O)C(=O)O)NC(=O)[C@H](C)NC(=O)[C@H](C)NC(=O)[C@H](CCCNC(=N)N)NC(=O)[C@H](CO)NC(=O)[C@H](CC(=O)O)NC(=O)[C@H](CC(C)C)NC(=O)[C@](C)(Cc1ccccc1)NC(=O)[C@H](CCCCN)NC(=O)[C@H](CO)NC(=O)[C@@H](NC(=O)[C@H](CC(=O)O)NC(=O)[C@H](CO)NC(=O)[C@@H](NC(=O)[C@](C)(Cc1ccccc1)NC(=O)[C@H](CO)NC(=O)CNC(=O)[C@H](Cc1c[nH]cn1)NC(=O)C(C)(C)NC(=O)[C@@H](N)Cc1c[nH]cn1)[C@@H](C)O)C(C)C)C(C)C)C(=O)N[C@@H](C)C(=O)N[C@@H](CCC(=O)O)C(=O)N[C@H](C(N)=O)[C@@H](C)O` [Peptide 300] (H-H[Aib]HGS[αMeF]TSDVSK[αMeF]LDSRAAK([AEEA-AEEA-γGlu-C18 diacid])D[αMeF]VQ[Aib]IAET-NH2), the EC50 – broadly, the concentration that produces a half-maximal response – in experiment [1] (setting [4]) was found to be 0.0184 nM; in experiment [2] (setting [5]), 0.0197 nM. Also, in experiment [2] (Table 7), the “% Relative Potency Ratio” value is listed as 1.8. The “24 hr % Vehicle Food Intake” value in experiment [3] (dose 10 nmol/kg) was 45.2%.

As to `CC[C@H](C)[C@H](NC(=O)C(C)(C)NC(=O)[C@H](C)NC(=O)[C@@H](NC(=O)[C@](C)(Cc1ccccc1)NC(=O)[C@H](CC(=O)O)NC(=O)[C@H](CCCCNC(=O)COCCOCCNC(=O)COCCOCCNC(=O)CC[C@H](NC(=O)CC[C@H](NC(=O)CCCCCCCCCCCCCCCCCCC(=O)O)C(=O)O)C(=O)O)NC(=O)[C@H](C)NC(=O)[C@H](C)NC(=O)[C@H](CCCNC(=N)N)NC(=O)[C@H](CO)NC(=O)[C@H](CC(=O)O)NC(=O)[C@H](CC(C)C)NC(=O)[C@](C)(Cc1ccccc1)NC(=O)[C@H](CCCCN)NC(=O)[C@H](CO)NC(=O)[C@@H](NC(=O)[C@H](CC(=O)O)NC(=O)[C@H](CO)NC(=O)[C@@H](NC(=O)[C@](C)(Cc1ccccc1)NC(=O)[C@H](CO)NC(=O)CNC(=O)[C@H](Cc1c[nH]cn1)NC(=O)C(C)(C)NC(=O)[C@@H](N)Cc1c[nH]cn1)[C@@H](C)O)C(C)C)[C@@H](C)CC)C(=O)N[C@@H](C)C(=O)N[C@@H](CCC(=O)O)C(=O)N[C@H](C(N)=O)[C@@H](C)O` [Peptide 302] (H-H[Aib]HGS[αMeF]TSDVSK[αMeF]LDSRAAK([AEEA-AEEA-γGlu-γGlu-C20 diacid])D[αMeF]IA[Aib]IAET-NH2), the EC50 in experiment [1] (setting [4]) came to 0.271 nM; in experiment [2] (setting [5]), 0.151 nM. Further, in experiment [2] (Table 7), the “% Relative Potency Ratio” value amounted to 3.5. Also, in experiment [3] (dose 30 nmol/kg), the “24 hr % Vehicle Food Intake” value was determined as 46.4%.

`CC[C@H](C)[C@H](NC(=O)[C@H](Cc1c[nH]c2ccccc12)NC(=O)[C@H](CCCCNC(=O)COCCOCCNC(=O)COCCOCCNC(=O)CC[C@H](NC(=O)CC[C@H](NC(=O)CCCCCCCCCCCCCCCCC(=O)O)C(=O)O)C(=O)O)NC(=O)[C@@H](NC(=O)[C@H](Cc1ccccc1)NC(=O)[C@H](CC(=O)O)NC(=O)[C@H](CCC(N)=O)NC(=O)[C@H](C)NC(=O)[C@H](C)NC(=O)[C@H](CCCNC(=N)N)NC(=O)[C@H](CO)NC(=O)[C@H](CC(=O)O)NC(=O)[C@H](CC(C)C)NC(=O)[C@](C)(Cc1ccccc1)NC(=O)[C@H](CCCCN)NC(=O)[C@H](CO)NC(=O)[C@@H](NC(=O)[C@H](CC(=O)O)NC(=O)[C@H](CO)NC(=O)[C@@H](NC(=O)[C@](C)(Cc1ccccc1)NC(=O)[C@H](CO)NC(=O)CNC(=O)[C@H](Cc1c[nH]cn1)NC(=O)C(C)(C)NC(=O)[C@@H](N)Cc1c[nH]cn1)[C@@H](C)O)C(C)C)C(C)C)C(=O)N[C@@H](C)C(=O)N[C@@H](CC(N)=O)C(=O)N[C@H](C(=O)NCC(=O)NCC(N)=O)[C@@H](C)O` [Peptide 364] (H-H[Aib]HGS[αMeF]TSDVSK[αMeF]LDSRAAQDFVK([AEEA-AEEA-γGlu-γGlu-C18 diacid])WIANTGG-NH2): the EC50 in experiment [1] (cAMP, CHO cells, 0.1% BSA) came to 0.0304 nM; in experiment [2] (cAMP, CHO cells, 0.1% BSA), 0.0234 nM. For the same compound, the “% Relative Potency Ratio” value in experiment [2] worked out at 2.6. In addition, the “24 hr % Vehicle Food Intake” value in experiment [3] (dose 10 nmol/kg) was determined as 63.7%.

With `CC[C@H](C)[C@H](NC(=O)C(C)(C)NC(=O)[C@H](CCCCNC(=O)COCCOCCNC(=O)COCCOCCNC(=O)CC[C@H](NC(=O)CCCCCCCCCCCCCCCCC(=O)O)C(=O)O)NC(=O)[C@@H](NC(=O)[C@H](Cc1ccccc1)NC(=O)[C@H](CC(=O)O)NC(=O)[C@H](CCC(N)=O)NC(=O)[C@H](C)NC(=O)[C@H](C)NC(=O)[C@H](CCCNC(=N)N)NC(=O)[C@H](CO)NC(=O)[C@H](CC(=O)O)NC(=O)[C@H](CC(C)C)NC(=O)[C@](C)(Cc1ccccc1)NC(=O)[C@H](CCCCN)NC(=O)[C@H](CO)NC(=O)[C@@H](NC(=O)[C@H](CC(=O)O)NC(=O)[C@H](CO)NC(=O)[C@@H](NC(=O)[C@](C)(Cc1ccccc1)NC(=O)[C@H](CO)NC(=O)CNC(=O)[C@H](Cc1c[nH]cn1)NC(=O)C(C)(C)NC(=O)[C@@H](N)Cc1c[nH]cn1)[C@@H](C)O)C(C)C)C(C)C)C(=O)N[C@@H](C)C(=O)N[C@@H](CC(N)=O)C(=O)N[C@H](C(N)=O)[C@@H](C)O` [Peptide 366] (H-H[Aib]HGS[αMeF]TSDVSK[αMeF]LDSRAAQDFVK([AEEA-AEEA-γGlu-C18 diacid])[Aib]IANT-NH2; N-terminus assumed), the EC50 in experiment [1] (cAMP, CHO cells, 0.1% BSA) was 0.0274 nM; in experiment [2] (cAMP, CHO cells, 0.1% BSA), 0.031 nM. Besides, the “% Relative Potency Ratio” value in experiment [2] came out at 1.7. In addition, in experiment [3] (dose 10 nmol/kg), the “24 hr % Vehicle Food Intake” value was 83.5%.

For `CC[C@H](C)[C@H](NC(=O)C(C)(C)NC(=O)[C@H](CCCCNC(=O)COCCOCCNC(=O)COCCOCCNC(=O)CC[C@H](NC(=O)CC[C@H](NC(=O)CCCCCCCCCCCCCCCCCCC(=O)O)C(=O)O)C(=O)O)NC(=O)[C@@H](NC(=O)[C@](C)(Cc1ccccc1)NC(=O)[C@H](CC(=O)O)NC(=O)[C@H](CCC(N)=O)NC(=O)[C@H](C)NC(=O)[C@H](C)NC(=O)[C@H](CCCNC(=N)N)NC(=O)[C@H](CO)NC(=O)[C@H](CC(=O)O)NC(=O)[C@H](CC(C)C)NC(=O)[C@](C)(Cc1ccccc1)NC(=O)[C@H](CCCCN)NC(=O)[C@H](CO)NC(=O)[C@@H](NC(=O)[C@H](CC(=O)O)NC(=O)[C@H](CO)NC(=O)[C@@H](NC(=O)[C@](C)(Cc1ccccc1)NC(=O)[C@H](CO)NC(=O)CNC(=O)[C@H](Cc1c[nH]cn1)NC(=O)C(C)(C)NC(=O)[C@@H](N)Cc1c[nH]cn1)[C@@H](C)O)C(C)C)C(C)C)C(=O)N[C@@H](C)C(=O)N[C@@H](CC(N)=O)C(=O)N[C@H](C(N)=O)[C@@H](C)O` [Peptide 375] (H-H[Aib]HGS[αMeF]TSDVSK[αMeF]LDSRAAQD[αMeF]VK([AEEA-AEEA-γGlu-γGlu-C20 diacid])[Aib]IANT-NH2; N-terminus assumed), the EC50 in experiment [1] (cAMP, CHO cells, 0.1% BSA) amounted to 0.155 nM; in experiment [2] (cAMP, CHO cells, 0.1% BSA) it was 0.225 nM. Moreover, in experiment [2], the “% Relative Potency Ratio” value amounted to 1.4. The “24 hr % Vehicle Food Intake” value in experiment [3] (dose 10 nmol/kg) amounted to 66.0%.
